Data set [1] relates to cells. The experiment in a line: Intracellular delivery of FITC (cell fluorescence). The data set is classed as cell-based. The conditions noted are these: provided to cells. The source says:
In certain embodiments, the compositions provide intracellular delivery of the at least one type of payload molecule. The intracellular delivery may occur in vitro or in vivo. […] Thus, the compositions provide intracellular delivery of the at least one type of payload molecule.

Data set [2] deals with Tu167 cells. The experiment in a line: MTT assay, in vitro cell killing in Tu167 cells. The class given is cell-based. The procedure:
(§1) For the analyses, the analyses presented in FIGS. 1 and 2, the paclitaxel was dissolved in either acidic MeOH (FIG. 1) or neutral MeOH (FIG. 2) prior to association with the PEG-functionalized SWNTs. The MeOH was removed from the compositions by evaporation following sequestration of the paclitaxel by the PEG-functionalized SWNT matrix. MeOH removal was performed prior to MTT analysis. […] The control paclitaxel was dissolved in a cremaphor vehicle.

For data set [3], the system named is UMSCC1 cells. The experiment in a line: MTT assay, in vitro cell killing in UMSCC1 cells. The class given is cell-based. The settings on record: Homo sapiens. The procedure: as §1
For the analysis presented in FIG. 4, the paclitaxel was dissolved in EtOH prior to association with the PEG-functionalized SWNTs. The EtOH was removed from the compositions by evaporation following sequestration of the paclitaxel by the PEG-functionalized SWNT matrix. EtOH removal was performed prior to MTT analysis.

The nature of data set [4]: Paclitaxel solubilization in water with or without PEG-functionalized carbon nanotubes.

Read-outs that look alike come from different tables or passages of the source.

fluorescein isothiocyanate [FITC]: in data set [1], the intracellular fluorescence result is “no intracellular fluorescence was observed”.
On to `CC(=O)O[C@H]1C(=O)[C@@]2(C)[C@H]([C@H](OC(=O)c3ccccc3)[C@]3(O)C[C@H](OC(=O)[C@H](O)[C@@H](NC(=O)c4ccccc4)c4ccccc4)C(C)=C1C3(C)C)[C@]1(OC(C)=O)CO[C@@H]1C[C@@H]2O` [PACLITAXEL, paclitaxel], for which the IC50 is 0.62 nM in data set [2] (Tu167 cells, MTT, vehicle per row (cremaphor or aqueous), R^2 in parentheses, read-out: Tu167 IC50 (nm): R^2); 0.62 nM in data set [2] (dissolved in cremaphor vehicle (FIG. 3), read-out: IC50 in Tu167 cells); 0.26 nM in data set [3] (UMSCC1, cremaphor vehicle (FIG. 5), read-out: IC50 in UMSCC1 cells); 0.26 nM in data set [3] (UMSCC1 cells, MTT, vehicle per row (cremaphor or aqueous), R^2 in parentheses, read-out: UMSCCI IC50 (nm): R^2). Moreover, the precipitation from solution result in data set [4] (1 mg paclitaxel in 70 μL ethanol added to 1 mL of a solution containing PEG-functionalized carbon nanotubes) is recorded as “no paclitaxel precipitates from solution”; in data set [4] (1 mg paclitaxel in 70 μL ethanol added to 1 mL of water), “immediately precipitates from solution”.

Source of the values: patent US20090170768A1, “WATER-SOLUBLE CARBON NANOTUBE COMPOSITIONS FOR DRUG DELIVERY AND MEDICINAL APPLICATIONS” (William Marsh Rice University, priority 2007, published 2009).
